Reference: patent US9682141B2, “Combination of kinase inhibitors and uses thereof” (INTELLIKINE LLC, priority 2011, dated 2017)
Read-outs that look alike come from different tables or passages of the source.

Key:
Format in all cases: biochemical
mTORC = mTORC (Homo sapiens (Human), UniProt P42345); assay: mTOR inhibition assay (radiometric or LanthaScreen TR-FRET)
PI3K β = PI3K β (Homo sapiens (Human), UniProt P42338); assay: PI 3-Kinase (human) HTRF assay, p110β/p85α
PI3K α = PI3K α (Homo sapiens (Human), UniProt P42336); assay: PI 3-Kinase (human) HTRF assay, p110α/p85α
Sequence of PI3K α (P42336 whole entry): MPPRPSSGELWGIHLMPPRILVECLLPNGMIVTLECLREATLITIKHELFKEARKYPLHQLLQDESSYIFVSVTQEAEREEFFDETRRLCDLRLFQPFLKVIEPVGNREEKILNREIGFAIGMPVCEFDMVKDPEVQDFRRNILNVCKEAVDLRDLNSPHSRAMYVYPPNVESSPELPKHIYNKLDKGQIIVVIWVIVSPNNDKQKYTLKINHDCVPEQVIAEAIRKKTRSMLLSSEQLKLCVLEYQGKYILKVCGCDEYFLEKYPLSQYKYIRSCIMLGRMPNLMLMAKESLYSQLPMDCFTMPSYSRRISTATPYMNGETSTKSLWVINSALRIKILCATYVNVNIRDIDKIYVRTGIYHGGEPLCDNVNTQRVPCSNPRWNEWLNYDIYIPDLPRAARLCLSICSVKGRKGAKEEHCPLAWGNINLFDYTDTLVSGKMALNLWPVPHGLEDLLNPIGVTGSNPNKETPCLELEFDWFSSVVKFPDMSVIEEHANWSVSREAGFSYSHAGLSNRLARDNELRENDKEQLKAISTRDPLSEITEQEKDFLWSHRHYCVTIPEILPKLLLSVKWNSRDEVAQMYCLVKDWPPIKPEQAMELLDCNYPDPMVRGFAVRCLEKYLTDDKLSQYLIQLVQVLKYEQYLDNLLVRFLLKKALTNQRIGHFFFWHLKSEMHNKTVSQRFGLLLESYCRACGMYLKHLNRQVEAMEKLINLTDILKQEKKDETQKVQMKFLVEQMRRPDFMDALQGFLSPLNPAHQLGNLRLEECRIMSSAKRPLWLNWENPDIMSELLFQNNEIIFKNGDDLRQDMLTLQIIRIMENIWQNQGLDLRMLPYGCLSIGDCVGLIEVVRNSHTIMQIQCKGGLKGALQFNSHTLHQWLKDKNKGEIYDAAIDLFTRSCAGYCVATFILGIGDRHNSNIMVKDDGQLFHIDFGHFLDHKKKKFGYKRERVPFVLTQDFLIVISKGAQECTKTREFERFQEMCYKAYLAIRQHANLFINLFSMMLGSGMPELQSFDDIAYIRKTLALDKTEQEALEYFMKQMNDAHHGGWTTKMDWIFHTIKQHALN
Sequence of PI3K α (P27986 whole entry partner): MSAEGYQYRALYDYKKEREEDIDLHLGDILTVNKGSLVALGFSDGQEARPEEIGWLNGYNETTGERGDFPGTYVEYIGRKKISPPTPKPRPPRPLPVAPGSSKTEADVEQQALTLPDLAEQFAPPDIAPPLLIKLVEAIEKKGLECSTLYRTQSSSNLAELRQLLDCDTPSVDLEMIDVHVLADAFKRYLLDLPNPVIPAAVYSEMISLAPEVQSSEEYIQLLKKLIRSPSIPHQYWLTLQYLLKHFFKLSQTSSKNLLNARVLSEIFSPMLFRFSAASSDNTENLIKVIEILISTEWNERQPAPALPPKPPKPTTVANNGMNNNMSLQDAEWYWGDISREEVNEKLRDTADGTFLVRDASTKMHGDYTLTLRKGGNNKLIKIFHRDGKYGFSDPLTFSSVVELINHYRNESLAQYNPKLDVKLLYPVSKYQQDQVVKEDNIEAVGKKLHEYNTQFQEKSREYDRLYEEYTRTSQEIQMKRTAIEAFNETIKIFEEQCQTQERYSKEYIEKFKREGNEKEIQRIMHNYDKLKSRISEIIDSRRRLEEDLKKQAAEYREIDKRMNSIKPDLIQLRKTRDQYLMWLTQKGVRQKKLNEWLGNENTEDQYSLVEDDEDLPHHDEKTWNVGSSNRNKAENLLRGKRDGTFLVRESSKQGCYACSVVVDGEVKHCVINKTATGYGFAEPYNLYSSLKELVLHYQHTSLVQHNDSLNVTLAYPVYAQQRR

PI3K γ = PI3K γ (Homo sapiens (Human), UniProt P48736); assay: PI 3-Kinase (human) HTRF assay, p110γ
PI3K δ = PI3K δ (Homo sapiens (Human), UniProt O00329); assay: PI 3-Kinase (human) HTRF assay, p110δ/p85α

Sequence of PI3K β (P42338 whole entry): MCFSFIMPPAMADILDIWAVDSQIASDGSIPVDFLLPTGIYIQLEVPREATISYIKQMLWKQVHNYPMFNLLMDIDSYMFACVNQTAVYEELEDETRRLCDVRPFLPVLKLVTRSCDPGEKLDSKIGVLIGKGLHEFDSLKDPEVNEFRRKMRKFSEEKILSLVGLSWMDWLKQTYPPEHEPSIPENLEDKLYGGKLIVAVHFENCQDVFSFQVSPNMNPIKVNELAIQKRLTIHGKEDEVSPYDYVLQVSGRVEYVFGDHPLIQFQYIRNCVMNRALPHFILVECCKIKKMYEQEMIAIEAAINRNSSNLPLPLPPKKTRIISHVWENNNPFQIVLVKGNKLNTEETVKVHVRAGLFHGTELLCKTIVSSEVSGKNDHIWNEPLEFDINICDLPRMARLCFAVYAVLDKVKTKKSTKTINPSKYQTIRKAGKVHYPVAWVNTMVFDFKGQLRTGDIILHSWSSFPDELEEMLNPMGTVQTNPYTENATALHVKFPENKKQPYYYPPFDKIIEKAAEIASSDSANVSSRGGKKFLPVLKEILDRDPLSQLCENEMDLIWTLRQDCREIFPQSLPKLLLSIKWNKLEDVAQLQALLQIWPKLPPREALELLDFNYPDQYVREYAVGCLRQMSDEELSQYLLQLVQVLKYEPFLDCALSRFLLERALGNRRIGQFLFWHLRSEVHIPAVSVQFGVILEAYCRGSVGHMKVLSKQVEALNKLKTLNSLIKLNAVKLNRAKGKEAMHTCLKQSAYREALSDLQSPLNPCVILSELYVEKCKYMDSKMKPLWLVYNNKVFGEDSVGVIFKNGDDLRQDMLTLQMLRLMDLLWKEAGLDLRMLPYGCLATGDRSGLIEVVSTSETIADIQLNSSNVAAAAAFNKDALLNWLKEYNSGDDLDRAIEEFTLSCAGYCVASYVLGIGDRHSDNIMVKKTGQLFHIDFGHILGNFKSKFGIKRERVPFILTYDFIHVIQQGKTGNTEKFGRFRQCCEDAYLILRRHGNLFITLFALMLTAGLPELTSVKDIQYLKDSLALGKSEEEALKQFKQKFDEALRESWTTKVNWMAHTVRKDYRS
Sequence of PI3K β (P27986 whole entry partner): as the sequence (P27986 whole entry partner) above
Sequence of mTORC (P42345 1360-2549): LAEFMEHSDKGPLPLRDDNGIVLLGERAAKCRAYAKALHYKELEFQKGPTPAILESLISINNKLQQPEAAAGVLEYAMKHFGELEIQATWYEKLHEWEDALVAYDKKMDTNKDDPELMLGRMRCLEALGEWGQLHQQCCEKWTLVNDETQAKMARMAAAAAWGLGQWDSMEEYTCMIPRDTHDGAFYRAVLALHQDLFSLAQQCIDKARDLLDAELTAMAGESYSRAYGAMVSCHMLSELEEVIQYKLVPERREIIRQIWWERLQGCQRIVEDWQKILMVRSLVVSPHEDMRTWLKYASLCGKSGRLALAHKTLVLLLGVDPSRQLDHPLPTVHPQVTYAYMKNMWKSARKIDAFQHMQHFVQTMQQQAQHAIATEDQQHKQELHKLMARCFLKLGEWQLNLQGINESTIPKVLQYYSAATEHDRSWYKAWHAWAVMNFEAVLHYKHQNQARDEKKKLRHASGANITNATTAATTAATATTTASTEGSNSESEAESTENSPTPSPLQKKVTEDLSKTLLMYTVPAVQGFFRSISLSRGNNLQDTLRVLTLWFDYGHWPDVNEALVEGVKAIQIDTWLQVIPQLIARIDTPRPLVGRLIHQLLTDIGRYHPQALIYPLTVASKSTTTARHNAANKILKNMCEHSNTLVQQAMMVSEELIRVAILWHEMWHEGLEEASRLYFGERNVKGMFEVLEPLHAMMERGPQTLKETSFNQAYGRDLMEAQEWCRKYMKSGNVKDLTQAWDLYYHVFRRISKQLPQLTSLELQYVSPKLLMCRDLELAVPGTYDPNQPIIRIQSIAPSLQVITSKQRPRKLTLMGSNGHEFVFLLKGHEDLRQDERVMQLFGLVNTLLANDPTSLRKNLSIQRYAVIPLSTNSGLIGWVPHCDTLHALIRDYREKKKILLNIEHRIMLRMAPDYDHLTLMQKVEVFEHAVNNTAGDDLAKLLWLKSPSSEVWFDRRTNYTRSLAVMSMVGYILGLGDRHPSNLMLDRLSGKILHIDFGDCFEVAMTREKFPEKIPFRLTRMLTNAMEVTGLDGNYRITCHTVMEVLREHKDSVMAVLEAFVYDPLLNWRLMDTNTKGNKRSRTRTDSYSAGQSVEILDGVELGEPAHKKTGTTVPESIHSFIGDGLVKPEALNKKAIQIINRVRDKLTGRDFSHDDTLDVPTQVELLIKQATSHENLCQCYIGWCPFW

Structure (SMILES) | IC50 (PI3K β) | IC50 (PI3K α) | IC50 (PI3K γ; read-out: PI3K γ IC50) | IC50 (PI3K δ) | IC50 (mTORC) | IC50 (PI3K γ; read-out: PI3K δ IC50)
CN1CCN(c2cnc3ccc(-c4ccc5oc(N)nc5c4)cc3n2)CC1 | < 0.1 µM | < 0.1 µM | < 1 µM |  | > 10 µM | 
CC(C)Oc1nc(-c2ccc3oc(N)nc3c2)cnc1N | < 10 µM | < 10 µM |  |  | < 1 µM | < 10 µM
Nc1nc2cc(-c3ccc4ncc(C(=O)N[C@H]5CC[C@H](O)CC5)n4c3)ccc2o1 | < 10 µM |  | < 0.1 µM |  | > 10 µM | 
N#Cc1cnc2ccc(-c3ccc4oc(N)nc4c3)cc2c1Cl |  |  |  |  | < 1 µM | 
Nc1nc2cc(-c3ccc4nccc(-c5ccncc5)c4c3)ccc2s1 | < 0.1 µM | < 0.1 µM | < 0.1 µM | < 0.1 µM |  | 
Nc1nc2cc(-c3cnc4ncc(-c5ccncc5)n4c3)ccc2o1 | > 10 µM | > 10 µM | > 10 µM | > 10 µM |  | 
CN1CCN(c2nc3cc(-c4ccc5oc(N)nc5c4)ccc3c(=O)n2C)CC1 | > 10 µM | < 10 µM | > 10 µM | > 10 µM |  | 
Nc1nc2cc(-c3ccc4ncc(C(=O)N5CCC(N6CCOCC6)CC5)n4c3)ccc2o1 | < 10 µM | < 1 µM | < 10 µM | < 10 µM |  | 
Nc1nc2cc(-c3cnc4ccc(N5C6CCC5COC6)nc4c3)ccc2o1 | > 10 µM | < 10 µM | < 10 µM | > 10 µM |  | 
Nc1noc2cc(-c3ccc4nccc(-c5ccncc5)c4c3)ccc12 [Compound 16] | < 10 µM | < 0.1 µM | < 1 µM | < 10 µM |  | 
CN1CCN(c2ccnc3ccc(-c4ccc5oc(N)nc5c4)cc23)CC1 [Compound 21] | < 10 µM | < 1 µM | < 10 µM | < 10 µM |  | 
CS(=O)(=O)N1CCN(C(=O)c2cnc3ccc(-c4ccc5oc(N)nc5c4)cn23)CC1 | > 10 µM | < 0.1 µM | < 1 µM | < 10 µM |  | 
Nc1nc2cc(-c3ccc4ncc(-c5ccc(N6CCOCC6)nc5)n4c3)ccc2o1 [Compound 51] | < 1 µM | < 0.1 µM | < 1 µM | < 1 µM |  | 
CN1CCN(C(=O)c2cnc3ccc(-c4ccc5sc(N)nc5c4)cn23)CC1 | < 10 µM | < 1 µM | > 10 µM | > 10 µM |  | 
Cc1ncccc1-c1cnc2ccc(-c3ccc4oc(N)nc4c3)cc2n1 | > 10 µM | < 1 µM | > 10 µM | > 10 µM |  | 
CN(C)CC(=O)N1CCC(Nc2ncnc3ccc(-c4ccc5oc(N)nc5c4)cc23)CC1 | < 1 µM | < 0.1 µM | < 1 µM | < 1 µM |  | 
Nc1nc2cc(-c3ccc4ncc(C(=O)N5CCNCC5)n4c3)ccc2o1 | < 10 µM | < 0.1 µM | > 10 µM | > 10 µM |  | 
CN1CCC(NC(=O)c2cnc3ccc(-c4ccc5oc(N)nc5c4)cn23)CC1 | < 1 µM | < 0.1 µM | < 1 µM | < 0.1 µM |  | 
Nc1nc2cc(-c3ccc4ncc(C(=O)NCCO)n4c3)ccc2o1 | < 1 µM | < 0.1 µM | < 0.1 µM | < 1 µM |  | 
Nc1nc2cc(-c3ccc4ncc(-c5cnn(CCO)c5)nc4c3)ccc2o1 | < 10 µM | < 0.1 µM | < 0.1 µM | > 10 µM |  | 
Cc1ccc(-c2cnc3ccc(-c4ccc5oc(N)nc5c4)cc3n2)cn1 | > 10 µM | < 0.1 µM | < 0.1 µM | > 10 µM |  | 
Nc1nc2cc(-c3ccc4ncc(C(=O)N5CCOCC5)n4c3)ccc2s1 | < 10 µM | < 1 µM | < 1 µM | > 10 µM |  | 
CN1CCN(c2ncnc3ccc(-c4ccc5oc(N)nc5c4)cc23)CC1 [Compound 23] | < 1 µM | < 0.1 µM | < 0.1 µM | < 10 µM |  | 

The next lines start with results.

IC50 (PI3K β) | IC50 (PI3K α) | IC50 (PI3K γ; read-out: PI3K γ IC50) | IC50 (PI3K δ) | Structure (SMILES) | IC50 (mTORC) | IC50 (PI3K γ; read-out: PI3K δ IC50)
> 10 µM | < 0.1 µM | < 0.1 µM | > 10 µM | Nc1nc2cc(-c3ccc4ncc(N5CCC(F)(F)CC5)nc4n3)ccc2o1 |  | 
< 10 µM | < 0.1 µM | < 0.1 µM | < 10 µM | C[C@@H]1COCCN1c1cnc2ccc(-c3ccc4oc(N)nc4c3)nc2n1 |  | 
> 10 µM | < 1 µM | < 10 µM | > 10 µM | Nc1nc2cc(-c3ccc4ncc(N5CC(N6CC7CCC(C6)O7)C5)nc4n3)ccc2o1 |  | 
> 10 µM | < 1 µM | < 10 µM | > 10 µM | CC1(C)CN(C2CN(c3cnc4ccc(-c5ccc6oc(N)nc6c5)nc4n3)C2)CCO1 |  | 
< 0.1 µM | < 1 µM | < 10 µM | < 10 µM | C[C@H]1CN(c2cnc3ccc(-c4ccc5oc(N)nc5c4)nc3n2)CCN1 |  | 
> 10 µM | < 0.1 µM | < 1 µM | > 10 µM | Nc1nc2cc(-c3ccc4ncc(N5CC6CCC(C5)O6)nc4n3)ccc2o1 |  | 
< 0.1 µM | < 0.1 µM | < 0.1 µM | < 0.1 µM | Nc1nc2cc(-c3ccc4ncc(N5CCN(C(=O)[C@@H]6CCCN6)CC5)nc4c3)ccc2o1 |  | 
< 1 µM | < 0.1 µM | < 10 µM | < 10 µM | C[C@@H]1CN(c2cnc3ccc(-c4ccc5oc(N)nc5c4)cc3n2)CCN1 |  | 
< 10 µM | < 0.1 µM | < 0.1 µM | < 0.1 µM | CC(=O)N1CCC(Nc2cnc3ccc(-c4ccc5oc(N)nc5c4)cc3n2)CC1 |  | 
< 1 µM | < 0.1 µM | < 1 µM | < 0.1 µM | CN1CC(C(=O)N2CCC(Nc3ncnc4ccc(-c5ccc6oc(N)nc6c5)cc34)CC2)C1 |  | 
< 10 µM | < 0.1 µM | < 1 µM | < 10 µM | Nc1nc2cc(-c3ccc4ncc(N5CCC(O)CC5)cc4n3)ccc2o1 |  | 
< 10 µM | < 0.1 µM | < 10 µM | < 10 µM | Nc1nc2cc(-c3ccc4ncc(N5CC(N6CCN(C7CC7)CC6)C5)nc4n3)ccc2o1 |  | 
< 0.1 µM | < 0.1 µM | < 1 µM | < 10 µM | Nc1nc2cc(-c3ccc4ncc(N5CCNCC5)nc4c3)ccc2o1 |  | 
> 10 µM | < 0.1 µM | < 1 µM | < 10 µM | CS(=O)(=O)N1CCN(C2CN(c3cnc4ccc(-c5ccc6oc(N)nc6c5)nc4n3)C2)CC1 |  | 
< 1 µM | < 0.1 µM | > 10 µM | < 10 µM | CNC(=O)CN1CCN(c2cnc3ccc(-c4ccc5oc(N)nc5c4)cc3n2)CC1 |  | 
< 10 µM | < 0.1 µM | < 0.1 µM | < 0.1 µM | Nc1nc2cc(-c3ccc4ncc(N[C@H]5CC[C@H](O)CC5)nc4c3)ccc2o1 |  | 
> 10 µM | < 1 µM | < 10 µM | > 10 µM | CC1CN(C2CN(c3cnc4ccc(-c5ccc6oc(N)nc6c5)nc4n3)C2)CCO1 (stereo not shown) |  | 
> 10 µM | < 10 µM | < 10 µM | > 10 µM | CC(C)(N)C(=O)N1CCN(c2ccc3ncc(-c4ccc5oc(N)nc5c4)cc3n2)CC1 |  | 
> 10 µM | < 10 µM | > 10 µM | > 10 µM | Nc1nc2cc(-c3ccc4ncc(C(=O)N5CCOCC5)nc4c3)ccc2o1 |  | 
< 1 µM | < 0.1 µM | > 10 µM | < 10 µM | Nc1nc2cc(-c3ccc4ncc(N5CCC(N)CC5)nc4c3)ccc2o1 |  | 
< 10 µM | < 0.1 µM | < 1 µM | < 10 µM | C[C@@H](N)C(=O)N1CCN(c2cnc3ccc(-c4ccc5oc(N)nc5c4)nc3n2)CC1 |  | 
